The values that follow come from PubChem BioAssay (NCI).

Each structure is given as a SMILES string.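 Exposure lasted 48 hours, with cells grown in 96-well plates and compounds tested at five concentrations. GI50 is the concentration that inhibits growth by half. Definition used: TGI = concentration required for complete inhibition of growth.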

Test systems include M19-MEL melanoma; KM20L2 colon; DLD-1 colon; LXFL 529 NSCLC; RXF-631 renal; P388/ADR leukemia; SN12K1 renal; MDA-N; PC-3 prostate; BT-549 breast; HS 578T breast.
What all share (test): NCI tumour cell line growth inhibition, 48 h

Turning to `CC(C)=CC(=O)CC(=O)C(=O)Nc1ccc(Cl)c(Cl)c1`, the TGI with M19-MEL melanoma, in the assay on KM20L2 colon, with DLD-1 colon and in the assay with LXFL 529 NSCLC was > 100 µM each time.
Take `CN(C)C(=O)C1CCC(=C2C(=O)OC(C)(C)OC2=O)N1C` (centres undefined): the TGI in the assay on M19-MEL melanoma, in the assay on KM20L2 colon, in the assay with DLD-1 colon and with LXFL 529 NSCLC was > 100 µM each time.
As for `O=C1CC2C(=O)N(Cc3ccccc3)C1C(S(=O)(=O)c1ccccc1)C2S(=O)(=O)c1ccccc1` (centres undefined), the TGI in the assay with M19-MEL melanoma turned out to be 4.09 µM; in the assay with RXF-631 renal, 28.1 µM; with KM20L2 colon, 7.4 µM; in the assay with DLD-1 colon, 3.13 µM; with LXFL 529 NSCLC it was 2.61 µM.
With `CC1CC2(CC[C@@H]1O)OCCO2` (some centres undefined), the TGI with M19-MEL melanoma, with RXF-631 renal, in the assay with DLD-1 colon and in the assay on LXFL 529 NSCLC was > 100 µM throughout.
Regarding `O=C1C(=O)N(C2C3CC4CC(C3)CC2C4)C(=O)C(=O)C1c1nc2ccccc2o1` (centres undefined), the TGI with M19-MEL melanoma was > 100 µM; in the assay with RXF-631 renal, > 100 µM; with KM20L2 colon it was > 100 µM; in the assay on DLD-1 colon it was 92.9 µM; with LXFL 529 NSCLC, > 100 µM.
For `CN(C)CCNC(=O)c1ccc(Cl)c2c(Nc3ccc(S(N)(=O)=O)cc3)c3ccccc3nc12`, the TGI was determined as 4.52 µM in the assay on M19-MEL melanoma; 11.6 µM in the assay on RXF-631 renal; 13.4 µM in the assay on KM20L2 colon; 8.85 µM in the assay with DLD-1 colon; 11.2 µM with LXFL 529 NSCLC.
With `CC(=O)C1=C([O-])C(C)OC1=O.CC(=O)C1=C([O-])C(C)OC1=O.[NH-]C1CCCC[C@H]1[NH-].[Pt+4]` (centres undefined), the GI50 with M19-MEL melanoma was 56 µM; with KM20L2 colon, 66.7 µM; in the assay with DLD-1 colon, > 100 µM; in the assay on LXFL 529 NSCLC, 36.2 µM. Moreover, the TGI in the assay with M19-MEL melanoma, with KM20L2 colon, in the assay with DLD-1 colon and in the assay with LXFL 529 NSCLC was > 100 µM in each case.
Turning to `CCC1CN2CCc3cc(OC)c(OC)cc3C2CC1CC1c2cc(OC)c(OC)cc2CCN1C(=O)CNC(=O)OC(C)(C)C` (centres undefined), the TGI in the assay with M19-MEL melanoma is 61.2 µM; in the assay with RXF-631 renal it was > 100 µM; with KM20L2 colon, 90.6 µM; in the assay on DLD-1 colon it was 36.9 µM; in the assay on LXFL 529 NSCLC it was 36.2 µM.
Regarding `FC(F)(F)c1ccc2nc(Nc3ccc(Cl)c(Cl)c3)c(-c3ccccc3)nc2c1`, the TGI with M19-MEL melanoma, in the assay on KM20L2 colon and in the assay with LXFL 529 NSCLC was > 100 µM in each case.
As for `CC(C)[C@@H](COC(C)(C)C)N=CN1CCc2c([nH]c3ccccc23)C1`, the TGI in the assay with KM20L2 colon, in the assay with DLD-1 colon and in the assay with LXFL 529 NSCLC was > 100 µM in each case.
For the compound `COc1ccc2cc3n(c2c1)CCc1cc(OC)c(OC)cc1-3`, the TGI in the assay with M19-MEL melanoma, in the assay on RXF-631 renal, in the assay on KM20L2 colon, with DLD-1 colon and with LXFL 529 NSCLC was > 100 µM in each case.
Consider `CCSc1nc(COC(=O)NC)c(COC(=O)NC)n1C`, for which the TGI in the assay with M19-MEL melanoma was > 79.9 µM; in the assay on P388/ADR leukemia, > 100 µM; with SN12K1 renal, > 100 µM; with RXF-631 renal it was > 100 µM; in the assay with MDA-N, > 100 µM; with KM20L2 colon, > 100 µM. The TGI with DLD-1 colon is > 100 µM; in the assay with PC-3 prostate it was > 100 µM; in the assay with BT-549 breast, > 100 µM; with HS 578T breast, > 100 µM; with LXFL 529 NSCLC, > 54.8 µM.
On to `CCCCCCCCCCCCC(=O)[O-].CCCCCCCCCCCCC(=O)[O-].CCCCCCCCCCCCC(=O)[O-].CCCCCCCCCCCCC(=O)[O-].[Mo+2].[Mo+2]`, for which the GI50 was 18.7 µM with M19-MEL melanoma; 0.403 µM in the assay on RXF-631 renal; 16.2 µM with KM20L2 colon; 7.9 µM with DLD-1 colon; 10.7 µM in the assay on LXFL 529 NSCLC. In addition, the TGI in the assay on M19-MEL melanoma was > 100 µM; with RXF-631 renal, 2.06 µM; with KM20L2 colon, 34.9 µM; in the assay with DLD-1 colon it was 23.3 µM; with LXFL 529 NSCLC it was 22.8 µM.
For `O=C(O)CCC1CCc2cccc3occ1c23` (centres undefined), the TGI with M19-MEL melanoma, in the assay with RXF-631 renal, with KM20L2 colon, in the assay on DLD-1 colon and in the assay with LXFL 529 NSCLC was > 100 µM each time.
For the compound `Cc1cccc(C)c1NC(=O)CCCC(=O)C1CCC/C1=N\NC(=O)C(=O)NN` (centres undefined), the TGI in the assay on RXF-631 renal, in the assay with KM20L2 colon, with DLD-1 colon and with LXFL 529 NSCLC was > 100 µM in each case.
For the compound `O=C(Cc1ccccc1)N/N=C(\C1=Nc2ccc([N+](=O)[O-])cc2NC1O)C(O)c1ccc([N+](=O)[O-])cc1` (centres undefined), the TGI with M19-MEL melanoma, in the assay on RXF-631 renal, in the assay on KM20L2 colon, in the assay on DLD-1 colon and in the assay with LXFL 529 NSCLC was > 100 µM each time.
Consider `COc1ccc2c(C(=O)O)cc3cc(OC)c(OC)cc3c2c1`, for which the TGI in the assay on M19-MEL melanoma, in the assay on RXF-631 renal, in the assay with KM20L2 colon, in the assay on DLD-1 colon and in the assay with LXFL 529 NSCLC was > 100 µM throughout.
`Cc1cccc(C(C)(C)C)c1NC(=O)C(=O)C(c1cnc2ccccc2n1)[N+](=O)[O-]` (centres undefined): the TGI in the assay with M19-MEL melanoma, in the assay on KM20L2 colon, in the assay with DLD-1 colon and in the assay on LXFL 529 NSCLC was > 100 µM throughout.
Consider `CCO[C@@H]1C2C=CC(C2)[C@H]1[N+](=O)[O-]` (some centres undefined), for which the TGI in the assay with M19-MEL melanoma, in the assay on KM20L2 colon, in the assay with DLD-1 colon and in the assay on LXFL 529 NSCLC was > 100 µM in each case.
